Measurements taken from EP0837085A1, “POLYCARBONATE-BASE POLYMER, PRODUCTION PROCESS, RESIN COATING FLUID PREPARED THEREFROM, AND ELECTROPHOTOGRAPHIC PHOTORECEPTOR PREPARED THEREFROM” (IDEMITSU KOSAN COMPANY LIMITED, priority 1994, dated 1996).

What was measured:
[1] = pKa of the starting alcohol, in water at 25°C
Description: (§1) An ordinary acid, which is represented by HA, in water is in an equilibrium state as shown below. HA + H2 O ⇄ H3 O^+ (+ A)^- [formula] Equilibrium constant Keq is calculated as follows. Keq =([H3 O^+ (] [A)^- ])/([HA] [H2 O]) [formula] wherein [ ] represents the concentration of each chemical species.
(§2) In ordinary diluted solutions, the concentration of water [H2O] hardly changes and is constantly 55.5M, and the equilibrium constant Keq can be converted into another equation, to show the following acidity constant Ka. Ka =(([A)^- ] [H3 O^+ ])/([HA]) [formula]

Description for physchem: as §1, §2

Row | pKa [1] | Structure (SMILES) | pKa (physchem; water) | further results
1 | 5 | OC(C(F)(F)F)C(F)(F)F | – | –
2 | – | OCCCCCO [1,5-pentanediol, reference compound] | 17 | –
3 | 11 | OCC(F)(F)C(F)(F)C(F)(F)C(F)(F)CO [1H,1H,6H,6H-perfluoro-1,6-hexanediol] | – | –
4 | – | OCC(F)(F)F [2,2,2-trifluoroethanol] | 11 | –
5 | – | OCC(F)(F)C(F)(F)C(F)(F)CO [2,2,3,3,4,4-hexafluoro-1,5-pentanediol] | – | pKa (physchem): 11
